Patent publication US20180000085A1, “USE OF PICOLINAMIDE COMPOUNDS WITH FUNGICIDAL ACTIVITY” (DOW AGROSCIENCES LLC, priority 2014, published 2018)

Assays:
Zymoseptoria tritici = assay: Leaf blotch of wheat (SEPTTR) disease control on wheat seedlings; type: in vivo; set-up: key to SEPTTR 1DP, HV activity at 100 ppm (% control rating) / SEPTTR 3DC, HV activity at 100 ppm (% control rating) / SEPTTR disease control, 1DP / SEPTTR disease control, 3DC / SEPTTR 1DP disease control rating, HV activity / SEPTTR 3DC disease control rating, HV activity / SEPTTR 3DC, LV activity at 125.1 g/H (% Control rating) / SEPTTR 1DP, LV activity at 125.1 g/H (% Control rating) / SEPTTR 1DP disease control rating, LV activity at 125.1 g/H / SEPTTR 3DC disease control rating, LV activity at 125.1 g/H / SEPTTR 3DC disease control rating, HV activity at 100 ppm / SEPTTR 1DP disease control rating, HV activity at 100 ppm / HV activity at 100 ppm SEPTTR 3DC (disease control rating) / HV activity at 100 ppm SEPTTR 1DP (disease control rating) / LV activity at 125.1 g/H SEPTTR 1DP (disease control rating) / LV activity at 125.1 g/H SEPTTR 3DC (disease control rating): A: > 80; B: ≤ 80; C: Not Tested; D: No Activity Observed in the Reported Assay; details: for SEPTTR 1DP disease control rating, LV activity at 125.1 g/H / SEPTTR 3DC disease control rating, LV activity at 125.1 g/H: low volume application
Puccinia triticina = assay: Wheat brown rust (PUCCRT) disease control on wheat seedlings; type: in vivo; set-up: key to PUCCRT 3DC, HV activity at 100 ppm (% control rating) / PUCCRT disease control, 3DC / PUCCRT 1DP disease control rating, HV activity / PUCCRT 3DC disease control rating, HV activity / PUCCRT 3DC, LV activity at 125.1 g/H (% Control rating) / PUCCRT 1DP, LV activity at 125.1 g/H (% Control rating) / PUCCRT 3DC disease control rating, LV activity at 125.1 g/H / PUCCRT 1DP disease control rating, LV activity at 125.1 g/H / PUCCRT 3DC disease control rating, HV activity at 100 ppm / PUCCRT 1DP disease control rating, HV activity at 100 ppm / HV activity at 100 ppm PUCCRT 3DC (disease control rating) / LV activity at 125.1 g/H PUCCRT 1DP (disease control rating) / LV activity at 125.1 g/H PUCCRT 3DC (disease control rating): A: > 80; B: ≤ 80; C: Not Tested; D: No Activity Observed in the Reported Assay; details: for PUCCRT 1DP disease control rating, LV activity at 125.1 g/H / PUCCRT 3DC disease control rating, LV activity at 125.1 g/H: low volume application
[1] = high volume application, 100 ppm, 1 day protectant
[2] = high volume application, 100 ppm, 3 day curative

Compound: COc1ccnc(C(=O)N[C@@H](C)C(=O)O[C@@H](C)[C@H](OCC2CC2)C2CCCCC2)c1OCOC(C)=O [Cmpd 881]
- SEPTTR 1DP disease control rating, LV activity at 125.1 g/H (Zymoseptoria tritici; 1 day protectant): B (≤ 80)
- SEPTTR 3DC disease control rating, LV activity at 125.1 g/H (Zymoseptoria tritici; 3 day curative): B (≤ 80)
- PUCCRT 1DP disease control rating, LV activity at 125.1 g/H (Puccinia triticina; 1 day protectant): A (> 80)
- PUCCRT 3DC disease control rating, LV activity at 125.1 g/H (Puccinia triticina; 3 day curative): A (> 80)

Compound: COc1ccnc(C(=O)N[C@@H](C)C(=O)O[C@@H](C)[C@H](OCC2CC2)C2CCCCC2)c1OC(C)=O [Cmpd 882]
- SEPTTR 1DP disease control rating, LV activity at 125.1 g/H (Zymoseptoria tritici; 1 day protectant): D
- SEPTTR 3DC disease control rating, LV activity at 125.1 g/H (Zymoseptoria tritici; 3 day curative): B (≤ 80)
- PUCCRT 1DP disease control rating, LV activity at 125.1 g/H (Puccinia triticina; 1 day protectant): A (> 80)
- PUCCRT 3DC disease control rating, LV activity at 125.1 g/H (Puccinia triticina; 3 day curative): A (> 80)

Compound: CCCO[C@@H](c1ccccc1)[C@H](C)OC(=O)[C@H](C)NC(=O)c1nccc(OC)c1OC(C)=O [Cmpd 883]
- SEPTTR 1DP disease control rating, LV activity at 125.1 g/H (Zymoseptoria tritici; 1 day protectant): B (≤ 80)
- SEPTTR 3DC disease control rating, LV activity at 125.1 g/H (Zymoseptoria tritici; 3 day curative): A (> 80)
- PUCCRT 1DP disease control rating, LV activity at 125.1 g/H (Puccinia triticina; 1 day protectant): A (> 80)
- PUCCRT 3DC disease control rating, LV activity at 125.1 g/H (Puccinia triticina; 3 day curative): A (> 80)

Compound: COc1ccnc(C(=O)N[C@@H](C)C(=O)O[C@@H](C)[C@@H](OC)c2ccccc2)c1OC(C)=O [Cmpd 885]
- SEPTTR 1DP disease control rating, LV activity at 125.1 g/H (Zymoseptoria tritici; 1 day protectant): D
- SEPTTR 3DC disease control rating, LV activity at 125.1 g/H (Zymoseptoria tritici; 3 day curative): B (≤ 80)
- PUCCRT 1DP disease control rating, LV activity at 125.1 g/H (Puccinia triticina; 1 day protectant): D
- PUCCRT 3DC disease control rating, LV activity at 125.1 g/H (Puccinia triticina; 3 day curative): A (> 80)

Compound: COc1ccnc(C(=O)N[C@@H](C)C(=O)O[C@@H](C)[C@H](OC)c2ccccc2)c1OC(C)=O [Cmpd 887]
- SEPTTR 1DP disease control rating, LV activity at 125.1 g/H (Zymoseptoria tritici; 1 day protectant): D
- SEPTTR 3DC disease control rating, LV activity at 125.1 g/H (Zymoseptoria tritici; 3 day curative): A (> 80)
- PUCCRT 1DP disease control rating, LV activity at 125.1 g/H (Puccinia triticina; 1 day protectant): D
- PUCCRT 3DC disease control rating, LV activity at 125.1 g/H (Puccinia triticina; 3 day curative): A (> 80)

Compound: COc1ccnc(C(=O)NC(C)C(=O)OC(C)C(Oc2ccccc2)c2ccc(-c3ccccc3)cc2)c1OCOC(C)=O (stereo not drawn) [Cmpd 905]
- SEPTTR 1DP disease control rating, LV activity at 125.1 g/H (Zymoseptoria tritici; 1 day protectant): A (> 80)
- SEPTTR 3DC disease control rating, LV activity at 125.1 g/H (Zymoseptoria tritici; 3 day curative): A (> 80)
- PUCCRT 1DP disease control rating, LV activity at 125.1 g/H (Puccinia triticina; 1 day protectant): A (> 80)
- PUCCRT 3DC disease control rating, LV activity at 125.1 g/H (Puccinia triticina; 3 day curative): B (≤ 80)

Compound: COc1ccnc(C(=O)NC(C)C(=O)OC(C)C(Oc2ccccc2)C2CCCCC2)c1OCOC(C)=O (stereo not drawn) [Cmpd 907]
- SEPTTR 1DP disease control rating, LV activity at 125.1 g/H (Zymoseptoria tritici; 1 day protectant): B (≤ 80)
- SEPTTR 3DC disease control rating, LV activity at 125.1 g/H (Zymoseptoria tritici; 3 day curative): B (≤ 80)
- PUCCRT 1DP disease control rating, LV activity at 125.1 g/H (Puccinia triticina; 1 day protectant): A (> 80)
- PUCCRT 3DC disease control rating, LV activity at 125.1 g/H (Puccinia triticina; 3 day curative): B (≤ 80)

Compound: COc1ccnc(C(=O)NC(C)C(=O)OC(C)C(Oc2ccc(C)cc2Cl)C2CCCC2)c1OCOC(C)=O (stereo not drawn) [Cmpd 913]
- SEPTTR 1DP disease control rating, LV activity at 125.1 g/H (Zymoseptoria tritici; 1 day protectant): D
- SEPTTR 3DC disease control rating, LV activity at 125.1 g/H (Zymoseptoria tritici; 3 day curative): B (≤ 80)
- PUCCRT 1DP disease control rating, LV activity at 125.1 g/H (Puccinia triticina; 1 day protectant): A (> 80)
- PUCCRT 3DC disease control rating, LV activity at 125.1 g/H (Puccinia triticina; 3 day curative): B (≤ 80)

Compound: COc1ccnc(C(=O)NC(C)C(=O)OC(C)C(OCC2CC2)C2CCCC2)c1OCOC(C)=O (stereo not drawn) [Cmpd 914]
- SEPTTR 1DP disease control rating, LV activity at 125.1 g/H (Zymoseptoria tritici; 1 day protectant): B (≤ 80)
- SEPTTR 3DC disease control rating, LV activity at 125.1 g/H (Zymoseptoria tritici; 3 day curative): B (≤ 80)
- PUCCRT 1DP disease control rating, LV activity at 125.1 g/H (Puccinia triticina; 1 day protectant): A (> 80)
- PUCCRT 3DC disease control rating, LV activity at 125.1 g/H (Puccinia triticina; 3 day curative): A (> 80)

Compound: COc1ccnc(C(=O)N[C@@H](C)C(=O)O[C@@H](C)[C@H](Oc2ccc(Cl)cc2)C2CCCC2)c1OC(C)=O [Cmpd 921]
- SEPTTR 1DP disease control rating, LV activity at 125.1 g/H (Zymoseptoria tritici; 1 day protectant): A (> 80)
- SEPTTR 3DC disease control rating, LV activity at 125.1 g/H (Zymoseptoria tritici; 3 day curative): B (≤ 80)
- PUCCRT 1DP disease control rating, LV activity at 125.1 g/H (Puccinia triticina; 1 day protectant): A (> 80)
- PUCCRT 3DC disease control rating, LV activity at 125.1 g/H (Puccinia triticina; 3 day curative): A (> 80)

Compound: COc1ccnc(C(=O)N[C@@H](C)C(=O)O[C@@H](C)[C@H](OCC(C)C)C2CCCC2)c1OC(C)=O [Cmpd 922]
- SEPTTR 1DP disease control rating, LV activity at 125.1 g/H (Zymoseptoria tritici; 1 day protectant): A (> 80)
- SEPTTR 3DC disease control rating, LV activity at 125.1 g/H (Zymoseptoria tritici; 3 day curative): B (≤ 80)
- PUCCRT 1DP disease control rating, LV activity at 125.1 g/H (Puccinia triticina; 1 day protectant): A (> 80)
- PUCCRT 3DC disease control rating, LV activity at 125.1 g/H (Puccinia triticina; 3 day curative): A (> 80)

Compound: CCC[C@@H](Oc1ccc(C)cc1Cl)[C@H](C)OC(=O)[C@H](C)NC(=O)c1nccc(OC)c1O [Cmpd 999]
- SEPTTR 1DP disease control rating, HV activity at 100 ppm (Zymoseptoria tritici; [1]): B (≤ 80)
- SEPTTR 3DC disease control rating, HV activity at 100 ppm (Zymoseptoria tritici; [2]): B (≤ 80)
- PUCCRT 1DP disease control rating, HV activity at 100 ppm (Puccinia triticina; [1]): A (> 80)
- PUCCRT 3DC disease control rating, HV activity at 100 ppm (Puccinia triticina; [2]): A (> 80)
